Activity calls are given as the source filed them. The rule behind the calls is not given here.
System: CCRIS mutagenicity, Ames/micronucleus/aberration tests
Assay: CCRIS mutagenicity studies
[1] = Test System: AMES SALMONELLA TYPHIMURIUM, Strain/Indicator: TA98, Metabolic Activation: NONE, Method: PREINCUBATION
[2] = Test System: AMES SALMONELLA TYPHIMURIUM, Strain/Indicator: TA100, Metabolic Activation: NONE, Method: PREINCUBATION
[3] = Test System: AMES SALMONELLA TYPHIMURIUM, Strain/Indicator: TA1535, Metabolic Activation: NONE, Method: PREINCUBATION
[4] = Test System: AMES SALMONELLA TYPHIMURIUM, Strain/Indicator: TA1537, Metabolic Activation: NONE, Method: PREINCUBATION

CC(O)COC(C)(C)C (stereo unspecified)
mutagenic call (End Point: IN VITRO CHROMOSOMAL ABERRATIONS, Test System: CHO, Metabolic Activation: NONE): inactive; negative
mutagenic call (End Point: IN VITRO CHROMOSOMAL ABERRATIONS, Test System: CHO, Metabolic Activation: S-9): inactive; negative
mutagenic call (End Point: IN VIVO MICRONUCLEUS, Test System: PERIPHERAL BLOOD ERYTHROCYTES, Species: MOUSE, Strain/Sex: B6C3F1/FEMALE, Route: INHALATION): active; positive (weak)
mutagenic call (End Point: IN VIVO MICRONUCLEUS, Test System: PERIPHERAL BLOOD ERYTHROCYTES, Species: MOUSE, Strain/Sex: B6C3F1/MALE, Route: INHALATION): inactive; negative
mutagenic call (Test System: AMES SALMONELLA TYPHIMURIUM, Strain/Indicator: TA97, Metabolic Activation: HAMSTER, LIVER, S-9 (30%), AROCLOR 1254, Method: PREINCUBATION): inactive; negative
mutagenic call (Test System: AMES SALMONELLA TYPHIMURIUM, Strain/Indicator: TA97, Metabolic Activation: NONE, Method: PREINCUBATION): active; positive
mutagenic call (Test System: AMES SALMONELLA TYPHIMURIUM, Strain/Indicator: TA97, Metabolic Activation: RAT, LIVER, S-9 (30%), AROCLOR 1254, Method: PREINCUBATION): inactive; negative
mutagenic call (Test System: AMES SALMONELLA TYPHIMURIUM, Strain/Indicator: TA98, Metabolic Activation: HAMSTER, LIVER, S-9 (30%), AROCLOR 1254, Method: PREINCUBATION): inactive; negative
mutagenic call [1]: inactive; negative
mutagenic call (Test System: AMES SALMONELLA TYPHIMURIUM, Strain/Indicator: TA98, Metabolic Activation: RAT, LIVER, S-9 (30%), AROCLOR 1254, Method: PREINCUBATION): inactive; negative
mutagenic call (Test System: AMES SALMONELLA TYPHIMURIUM, Strain/Indicator: TA100, Metabolic Activation: HAMSTER, LIVER, S-9 (30%), AROCLOR 1254, Method: PREINCUBATION): inactive; negative
mutagenic call [2]: inactive; negative
mutagenic call (Test System: AMES SALMONELLA TYPHIMURIUM, Strain/Indicator: TA100, Metabolic Activation: RAT, LIVER, S-9 (30%), AROCLOR 1254, Method: PREINCUBATION): inactive; negative
mutagenic call (Test System: AMES SALMONELLA TYPHIMURIUM, Strain/Indicator: TA1535, Metabolic Activation: HAMSTER, LIVER, S-9 (30%), AROCLOR 1254, Method: PREINCUBATION): inactive; negative
mutagenic call [3]: inactive; negative
mutagenic call (Test System: AMES SALMONELLA TYPHIMURIUM, Strain/Indicator: TA1535, Metabolic Activation: RAT, LIVER, S-9 (30%), AROCLOR 1254, Method: PREINCUBATION): inactive; negative
mutagenic call [4]: inactive; negative

CCCCCCOCCOCCO
mutagenic call (Test System: AMES SALMONELLA TYPHIMURIUM, Strain/Indicator: TA98, Metabolic Activation: NONE, Method: STANDARD PLATE): inactive; negative
mutagenic call (Test System: AMES SALMONELLA TYPHIMURIUM, Strain/Indicator: TA98, Metabolic Activation: RAT LIVER S-9, AROCLOR 1254, Method: STANDARD PLATE): inactive; negative
mutagenic call (Test System: AMES SALMONELLA TYPHIMURIUM, Strain/Indicator: TA100, Metabolic Activation: NONE, Method: STANDARD PLATE): inactive; negative
mutagenic call (Test System: AMES SALMONELLA TYPHIMURIUM, Strain/Indicator: TA100, Metabolic Activation: RAT LIVER S-9, AROCLOR 1254, Method: STANDARD PLATE): inactive; negative
mutagenic call (Test System: AMES SALMONELLA TYPHIMURIUM, Strain/Indicator: TA1535, Metabolic Activation: NONE, Method: STANDARD PLATE): inactive; negative
mutagenic call (Test System: AMES SALMONELLA TYPHIMURIUM, Strain/Indicator: TA1535, Metabolic Activation: RAT LIVER S-9, AROCLOR 1254, Method: STANDARD PLATE): inactive; negative
mutagenic call (Test System: AMES SALMONELLA TYPHIMURIUM, Strain/Indicator: TA1537, Metabolic Activation: NONE, Method: STANDARD PLATE): inactive; negative
mutagenic call (Test System: AMES SALMONELLA TYPHIMURIUM, Strain/Indicator: TA1537, Metabolic Activation: RAT LIVER S-9, AROCLOR 1254, Method: STANDARD PLATE): inactive; negative
mutagenic call (Test System: AMES SALMONELLA TYPHIMURIUM, Strain/Indicator: TA1538, Metabolic Activation: NONE, Method: STANDARD PLATE): inactive; negative
mutagenic call (Test System: AMES SALMONELLA TYPHIMURIUM, Strain/Indicator: TA1538, Metabolic Activation: RAT LIVER S-9, AROCLOR 1254, Method: STANDARD PLATE): inactive; negative
mutagenic call (Test System: CHINESE HAMSTER OVARY CELLS, Strain/Indicator: CHO-K1-BH4 CELLS (HPRT)/6-THIOGUANINE, Metabolic Activation: RAT LIVER S-9, AROCLOR 1254, Method: PREINCUBATION): active; positive

O=C(O)CCCCCCCCC(=O)O
mutagenic call [1]: inactive; negative
mutagenic call (Test System: AMES SALMONELLA TYPHIMURIUM, Strain/Indicator: TA98, Metabolic Activation: RAT LIVER S-9, PHENOBARBITAL AND BETA-NAPHTHOFLAVONE, Method: PREINCUBATION): inactive; negative
mutagenic call (Test System: AMES SALMONELLA TYPHIMURIUM, Strain/Indicator: TA98, Metabolic Activation: RAT, LIVER, S-9, KC 500, Method: PREINCUBATION): inactive; negative
mutagenic call [2]: inactive; negative
mutagenic call (Test System: AMES SALMONELLA TYPHIMURIUM, Strain/Indicator: TA100, Metabolic Activation: RAT LIVER S-9, PHENOBARBITAL AND BETA-NAPHTHOFLAVONE, Method: PREINCUBATION): inactive; negative
mutagenic call (Test System: AMES SALMONELLA TYPHIMURIUM, Strain/Indicator: TA100, Metabolic Activation: RAT, LIVER, S-9, KC 500, Method: PREINCUBATION): inactive; negative
mutagenic call [3]: inactive; negative
mutagenic call (Test System: AMES SALMONELLA TYPHIMURIUM, Strain/Indicator: TA1535, Metabolic Activation: RAT LIVER S-9, PHENOBARBITAL AND BETA-NAPHTHOFLAVONE, Method: PREINCUBATION): inactive; negative
mutagenic call (Test System: AMES SALMONELLA TYPHIMURIUM, Strain/Indicator: TA1535, Metabolic Activation: RAT, LIVER, S-9, KC 500, Method: PREINCUBATION): inactive; negative
mutagenic call [4]: inactive; negative
mutagenic call (Test System: AMES SALMONELLA TYPHIMURIUM, Strain/Indicator: TA1537, Metabolic Activation: RAT LIVER S-9, PHENOBARBITAL AND BETA-NAPHTHOFLAVONE, Method: PREINCUBATION): inactive; negative
mutagenic call (Test System: AMES SALMONELLA TYPHIMURIUM, Strain/Indicator: TA1537, Metabolic Activation: RAT, LIVER, S-9, KC 500, Method: PREINCUBATION): inactive; negative
mutagenic call (Test System: AMES SALMONELLA TYPHIMURIUM, Strain/Indicator: TA1538, Metabolic Activation: NONE, Method: PREINCUBATION): inactive; negative
mutagenic call (Test System: AMES SALMONELLA TYPHIMURIUM, Strain/Indicator: TA1538, Metabolic Activation: RAT, LIVER, S-9, KC 500, Method: PREINCUBATION): inactive; negative
mutagenic call (Test System: E. COLI, Strain/Indicator: WP2UVRA/PKM101, Metabolic Activation: NONE, Method: PREINCUBATION): inactive; negative
mutagenic call (Test System: E. COLI, Strain/Indicator: WP2UVRA/PKM101, Metabolic Activation: RAT LIVER S-9, PHENOBARBITAL AND BETA-NAPHTHOFLAVONE, Method: PREINCUBATION): inactive; negative
mutagenic call (Test System: E. COLI, Strain/Indicator: WP2 UVRA, Metabolic Activation: NONE, Method: PREINCUBATION): inactive; negative
mutagenic call (Test System: E. COLI, Strain/Indicator: WP2 UVRA, Metabolic Activation: RAT, LIVER, S-9, KC 500, Method: PREINCUBATION): inactive; negative

Source: PubChem BioAssay AID1259407 (Chemical Carcinogenesis Research Information System (CCRIS), 2018)
